Data: patent publication US11446388B2, “Amanitin antibody conjugates” ([…] Research GmbH, priority 2016, dated 2022)
*1 amine or outer side, *2 acyl side, *3 side chain or, on linkers, in order; H or OH if unused. Where a SMILES comes first, the peptide text is derived from it. Bridges are numbered along the chain shown (N, C = ends). [ ]: non-standard residue; d: D form. The star is where a group is joined. ξ: configuration not given here. X2 = CC(C)C(NC(=O)CCN1C(=O)C=CC1=O)C(=O)N[C@@H](C)C(=O)Nc1ccc(CN*)cc1; Trp(2-yl) = O=C([C@H](Cc1c([*:3])[nH]c2ccccc12)N[*:1])[*:2]; Ile(4R-OH,5-OH) = C[C@H]([C@H](N)C(=O)O)[C@@H](O)CO; X3 = CC([C@H](N[*:1])C(=O)[*:2])[C@@H](O)CO; X1 = O=C([C@@H]1CC(O)CN1[*:1])[*:2]; ξD = NC(CC(=O)O)C(=O)O; ξC = NC(CS)C(=O)O

Columns and labels:
[1] = Western-Blot stability of reference Thiomab D265C conjugates in plasma and PBS; format: in vitro ADME; settings: conjugated to reference Thiomab D265C; 37° C. in human plasma, mouse plasma and PBS for 0, 4 and 10 days
From the text: Detection was done with a polyclonal anti-amanitin antibody from rabbit and an anti-rabbit antibody conjugated to horseradish peroxidase.

SKBR-3 cells = test: Cytotoxicity on SKBR-3 after plasma or PBS stressing of reference Thiomab conjugates; format: cell-based; settings: 4 days, SKBR-3 cells 96 h
Experimental: Test items were incubated in human plasma at 37° C. for 0 an 4 days. Cytotoxicity assay were performed on SKBR-3 cells for 96 h.
Test items were incubated in mouse plasma at 37° C. for 0 an 4 days. Cytotoxicity assay were performed on SKBR-3 cells for 96 h.
Test items were incubated in PBS at 37° C. for 0 an 4 days. Cytotoxicity assay were performed on SKBR-3 cells for 96 h. All ADCs show adequate stability to non-enzymatic environment.

[2] = Reactivity with cysteine in PBS buffer (RP-HPLC C18); format: physicochemical; settings: 1 mg/mL, 10 mg/mL cysteine in PBS, pH 7.4 at 37° C., 24 h, 48 h and 6 d
Experimental: 1 mg/mL α-amanitin 10 mg/mL cysteine in PBS, pH 7.4 at 37° C. after 24 h, 48 h and 6 d RP-HPLC C18.
1 mg/mL β-amanitin 10 mg/mL cysteine in PBS, pH 7.4 at 37° C. after 24 h, 48 h and 6 d RP-HPLC C18.
1 mg/mL amanin 10 mg/mL cysteine in PBS, pH 7.4 at 37° C. after 24 h, 48 h and 6 d RP-HPLC C18.
1 mg/mL HDP 30.2105, 10 mg/mL cysteine in PBS, pH 7.4 at 37° C. after 24 h, 48 h and 6 d RP-HPLC C18; *impurity.
FIG. 7 summarizes the results from FIGS. 3 to 6; x axis: reaction time in hours; y axis: amount of remaining amatoxin variant in %.

[3] = system: BCMA-positive NCI-H929 cells; test: Plasma stability: cell-based cytotoxicity assay after incubation in plasma or PBS; parameters: species or system human
Experimental: J22.9-ISY-D265C-30.2115 (A) and J22.9-ISY-D265C-30.1699 (B) were incubated in PBS for control, or human, cynomolgus or mouse plasma for 0, 4, and 10 days at 37° C. and analysed for remaining cellular toxicity potential using BCMA-positive NCI-H929 cells.
Plasma stability of both ADC variants was confirmed in a cell-based cytotoxicity assay on BCMA-positive NCI-H929 cells (see Table 2) after incubation for 0, 4 and 10 days in PBS, human, cynomolgus or mouse plasma.

MM.1S Luc, and KMS-11 = test: Timeline cytotoxicity experiment 24 to 120 hours on the two cell lines; format: cell-based, human; settings: measured after 24, 46, 72, 96, and 120 hours
Experimental: Cytotoxicity potentials of J22.9-ISY-D265C-30.2115 was compared to the interchain conjugate J22.9-ISY-MMAF on two BCMA-positive MM cell lines (MM.1S Luc, and KMS-11). […] The efficacy of both compounds was compared in a timeline experiment on the two cell lines. Cytotoxicity was measured after 24, 46, 72, 96, and 120 hours (see FIGS. 26B+26C).

[4] = format: in vitro ADME; settings: 37° C. for 0, 4, and 10 days in PBS, human, cynomolgus or mouse plasma
Experimental: Stability of J22.9-ISY-D265C-30.2115 and J22.9-ISY-D265C-30.1699 was tested following incubation at 37° C. for 0, 4, and 10 days in PBS, human, cynomolgus or mouse plasma.

[5] = system: NCI-H929 subcutaneous xenograft; test: NCI-H929 subcutaneous xenograft, single dose; format: in vivo, mouse
Experimental: Once tumor volume reached 80 mm^3, mice (8 animals per group) were treated intravenously with single doses (2 or 4 mg/kg) of J22.9-ISY-D265C-30.2115 or J22.9-ISY-D265C-30.1699, or were treated with PBS as control.. Tumor volumes were monitored twice per week.
Antitumor activity of J22.9-ISY-D265C-30.2115 and J22.9-ISY-D265C-30.1699 was tested in a subcutaneous NCI-H929 (see Table 3 for details of cell line) mouse xenograft model.

[6] = system: NCI-H929 subcutaneous xenograft; test: NCI-H929 subcutaneous xenograft, repeated dose; format: in vivo, mouse
Experimental: Once tumor volume reached 80 mm^3, mice (9 animals per group) were treated intravenously either once per week (1×/week), every two weeks (1×/2 weeks) or every 3 weeks (1×/3 weeks) with J22.9-ISY-D265C-30.2115 (doses 0.25 mg/kg, 0.5 mg/kg or 1 mg/kg) or were treated with PBS as control. In addition, 2 mg/kg doses were applied twice per week (2×/week). Tumor volumes were monitored twice per week.
The efficacy of drug substance J22.9-ISY-D265C-30.2115 was further evaluated in a repeated dose setting in the subcutaneous NCI-H929 xenograft model. Compared to the single dose application described above, doses were reduced to 1, 0.5 and 0.25 mg/kg and applied either once per week (1×/week), every two weeks (1×/2 weeks) or every three weeks (1×/3 weeks).

MM.1S Luc xenograft [7] = test: Disseminating intravenous MM.1S Luc xenograft model, single dose; format: in vivo, mouse
Experimental: (§1) When reaching a mean flux of 1.5×10^6-1×10^7 (10-14 days after implantation) 8-10 mice per group were treated with single doses (2 and 4 mg/kg) of J22.9-ISY-D265C-30.1699, J22.9-ISY-D265C-30.2115 or PBS as control. Luciferase activity was monitored by non-invasive bio-imaging twice weekly, 10 minutes after administration of luciferin (10 μl/g body weight). (B) Individual tumor growth curves for each animal are depicted. Individual Growth curves are shown for groups treated with 2 mg/kg (solid line) and 4 mg/kg (dashed line) of J22.9-ISY-D265C-30.2115.
as §1, with “doses (0.1, 0.3, 1” for “doses (2”, “and 2” for “and 4”, “of” for “of J22.9-ISY-D265C-30.1699,”, “depicted.” for “depicted. Individual”, “with 1” for “with 2”
The antitumor activity of J22.9-ISY-D265C-30.1699 and J22.9-ISY-D265C-30.2115 was further tested in a disseminating intravenous MM.1S Luc xenograft model at doses of 2 and 4 mg/kg. […]

[8] = Dose-escalating tolerability study in non-human primates; format: in vivo, cynomolgus monkeys; settings: repeated dosing of 3 mg/kg
Experimental: ALT: alanine transaminase; AST: aspartate transaminase; LDH: lactate dehydrogenase.
J22.9-ISY-D265C-30.2115 and J22.9-ISY-D265C-30.1699 were assessed for a dose-escalating tolerability study in cynomolgus monkeys. Groups of 3 animals were injected with J22.9-ISY-D265C-30.1699 at days 1 (0.3 mg/kg), 22 (1 mg/kg), and 44 (3 mg/kg), or with J22.9-ISY-D265C-30.2115 at days 1 (0.3 mg/kg), 21 (1 mg/kg), and 42, 64, 84, 106 (3 mg/kg each time point). Animals were monitored over time for biochemical and haematological blood parameters (see FIG. 25), urinalysis, body weight, food consumption, clinical signs and mortality. In addition, blood samples were collected for pharmacokinetic studies. At the end of the experiments tissue samples are used for histopathological examinations.

MM.1S Luc xenograft [9] = test: Disseminating MM.1S Luc xenograft model, comparison with J22.9-ISY-MMAF; format: in vivo
Experimental: The antitumor activity of J22.9-ISY-D265C-30.2115 was compared to the interchain conjugate J22.9-ISY-MMAF in a disseminating intravenous MM.1S Luc xenograft model at doses of 1 and 4 mg/kg.

RNA-polymerase II = RNA-polymerase II (Homo sapiens, UniProt P24928); settings: read-out: KD of complex with RNA-polymerase II; cited from earlier work

With `CC[C@H](C)[C@@H]1NC(=O)CNC(=O)[C@H]2Cc3c([nH]c4cc(OCc5ccc(NC(=O)[C@H](C)NC(=O)[C@@H](NC(=O)CCN6C(=O)C=CC6=O)C(C)C)cc5)ccc34)[S@+]([O-])CC(NC(=O)CNC1=O)C(=O)N[C@@H](CC(N)=O)C(=O)N1CC(O)C[C@H]1C(=O)N[C@@H]([C@@H](C)[C@@H](O)CO)C(=O)N2` (some centres unmarked) [HDP 30.1699] the “stability / cross-links (Western-Blot)” value [1] was “considerable cross-links and loss of the amatoxin moiety”, the “cytotoxicity after plasma stressing” value (SKBR-3 cells; human plasma at 37° C.) was “remarkable loss of cytotoxicity” and the “cytotoxicity after plasma stressing” value (SKBR-3 cells; mouse plasma at 37° C.) was “remarkable loss of cytotoxicity”.

With `CC[C@H](C)[C@@H]1NC(=O)CNC(=O)[C@@H]2Cc3c([nH]c4ccccc34)SCC(NC(=O)CNC1=O)C(=O)NC(CC(=O)O)C(=O)N1CC(O)C[C@H]1C(=O)N[C@@H](C(C)[C@@H](O)CO)C(=O)N2` (some centres unmarked) [HDP 30.2105] (cyclo(GIG[ξC][ξD][X1][X3][Trp(2-yl)]); thioether 4-8) the reactivity with cysteine [2] was “complete absence of reactivity”.

For `CC[C@H](C)[C@@H]1NC(=O)CNC(=O)[C@@H]2Cc3c([nH]c4ccccc34)SCC(NC(=O)CNC1=O)C(=O)N[C@@H](CC(=O)NCc1ccc(NC(=O)[C@H](C)NC(=O)C(NC(=O)CCN3C(=O)C=CC3=O)C(C)C)cc1)C(=O)N1CC(O)C[C@H]1C(=O)N[C@@H]([C@@H](C)[C@@H](O)CO)C(=O)N2` (stereo partly drawn) [HDP 30.2115] (cyclo(D(X2)[X1][Ile(4R-OH,5-OH)][Trp(2-yl)]GIG[ξC]); thioether 4-8), the “stability / cross-links (Western-Blot)” value [1] was “high stability and significantly reduced cross-links”, the “cytotoxicity after plasma stressing” value (SKBR-3 cells; human plasma at 37° C.) was “still picomolar activity” and the “cytotoxicity after plasma stressing” value (SKBR-3 cells; mouse plasma at 37° C.) was “remains almost unchanged”.

Molecule “J22.9-ISY-D265C-30.2115: Thiomab antibody J22.9-ISY-D265C conjugated to amatoxin-linker HDP 30.2115 via engineered cysteine 265, cleavable linker” has an EC50 ([3]; PBS pH 7.4, day 0, 37° C.) of 0.24 nM, an EC50 ([3]; PBS pH 7.4, day 4, 37° C.) of 0.24 nM and an EC50 ([3]; PBS pH 7.4, day 10, 37° C.) of 0.41 nM. It also gave an EC50 ([3]; cynomolgus plasma, day 0, 37° C.) of 0.25 nM, an EC50 ([3]; cynomolgus plasma, day 4, 37° C.) of 0.25 nM and an EC50 ([3]; human plasma, day 0, 37° C.) of 0.28 nM. For the same molecule, the EC50 ([3]; human plasma, day 4, 37° C.) was 0.27 nM, the EC50 ([3]; human plasma, day 10, 37° C.) was 1 nM and the “influence of incubation on cytotoxic potential” value ([3]; incubation in PBS or plasma up to 10 days) was “almost no influence on the cytotoxic potential”. For the same molecule, the EC50 ([3]; mouse plasma, day 0, 37° C.) was 0.12 nM, the EC50 ([3]; mouse plasma, day 4, 37° C.) was 0.18 nM and the EC50 ([3]; mouse plasma, day 10, 37° C.) was 0.6 nM. The “time at which full cytotoxicity is unfolded” value (MM.1S Luc, and KMS-11) was “after 96 and 120 hours”, the “stability (Western Blot)” value [4] was “particularly high stability” and the “anti-tumor efficacy compared to J22.9-ISY-D265C-30.1699” value ([5]; 2 mg/kg) was “slightly superior anti-tumor efficacy”. The “statistically significant body weight reduction” value ([5]; single doses 2 or 4 mg/kg) was “No statistically significant body weight reduction was observed”, the “initial response followed by regrowth of tumor” value ([5]; single treatment 2 mg/kg iv) was 6 of 8 and the complete tumor remission ([5]; single treatment 4 mg/kg iv) was 7 of 8. For the same molecule, the tumor response ([6]; repeated 2 mg/kg dosing) was “complete tumor remission”, the tumor response ([6]; repeatedly applied doses of 1 mg/kg) was “tumor regression” and the tumor response (MM.1S Luc xenograft [7]; single dose application of 0.3 mg/kg) was “complete tumor eradication”. The “slight regrowth of tumor after initial response for over 90 days” value (MM.1S Luc xenograft [7]; single doses of 2 and 4 mg/kg) was 1 of 10, the “liver enzymes or LDH on repeated dosing” value [8] was “did not result in further increase” and the “time to regrowth of the tumor” value (MM.1S Luc xenograft [9]; 1 mg/kg) was 50 days. The “time to regrowth of the tumor” value (MM.1S Luc xenograft [9]; 4 mg/kg) was 100 days, the “time to initial response” value (MM.1S Luc xenograft [9]; 1 and 4 mg/kg (both doses)) was 10 days and the “efficacy compared with MMAF conjugate” value (MM.1S Luc xenograft [9]; in vivo) was “better efficacy in terms of tumor free survival”.

With amanin the reactivity with cysteine [2] was “reduced reactivity”.

In the case of amanitin, the Kd (RNA-polymerase II) is given as 3 nM.

With α-amanitin the reactivity with cysteine [2] was “strong reactivity”.

In the case of β-amanitin, the reactivity with cysteine [2] is reported as “strong reactivity”.
